From patent US11912693B2, “Compounds for modulating S1P1 activity and methods of using the same” (TREVENA, INC., priority 2017, dated 2024)

Tests used:
[1] = target: T1, human sphingosine-1-phosphate receptor 1 (S1P1) (Homo sapiens (Human), UniProt P21453); experiment: Inhibition of cAMP production (HTRF cAMP HiRange), S1P1 CHO-K1 cells; format: cell-based; settings: for hS1P1 cAMP pEC50: inhibition of cAMP production, S1P1 CHO-K1 cells; for Emax: CHO-K1, efficacy (SPAN) normalized to fingolimod, read-out: hS1P1 cAMP SPAN
In short: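 CHO-K1 cells stably co-expressing human S1P1 (C-terminal Prolink tag) and EA-β-arrestin2 were grown in AssayComplete Media 6 at 37° C. and 5% CO2, plated, and incubated overnight. Agonist-driven inhibition of intracellular cAMP was read by TR-FRET with the HTRF cAMP HiRange kit on a PheraStar reader. Potency is pEC50, and efficacy (SPAN) is normalized to fingolimod.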
Target sequence in this assay (P21453 whole entry, looked up): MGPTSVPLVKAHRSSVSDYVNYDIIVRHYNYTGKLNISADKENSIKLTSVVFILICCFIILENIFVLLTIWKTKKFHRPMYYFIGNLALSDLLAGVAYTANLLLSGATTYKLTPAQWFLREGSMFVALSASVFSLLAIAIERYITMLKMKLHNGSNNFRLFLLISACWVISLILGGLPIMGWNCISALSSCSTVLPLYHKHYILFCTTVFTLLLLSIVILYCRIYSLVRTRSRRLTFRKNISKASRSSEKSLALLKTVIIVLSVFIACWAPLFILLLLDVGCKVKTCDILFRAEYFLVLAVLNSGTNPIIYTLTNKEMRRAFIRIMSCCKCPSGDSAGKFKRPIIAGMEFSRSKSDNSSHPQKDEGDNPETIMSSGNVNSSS

[2] = target: T1, human sphingosine-1-phosphate receptor 1 (S1P1); experiment: β-Arrestin2 recruitment assay (PathHunter), S1P1 CHO-K1 cells; format: cell-based; settings: for hS1P1 B-arrestin2 pEC50: β-arrestin2 recruitment, S1P1 CHO-K1 cells; for Emax: CHO-K1, efficacy (SPAN) normalized to fingolimod, read-out: hS1P1 B-arrestin2 SPAN
In short: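 Enzyme-fragment complementation read-out: agonist-driven β-arrestin2 binding to ProLink-tagged human S1P1 in stable CHO-K1 cells restores β-galactosidase, measured 1 h at room temperature after a 60 min 37° C. compound incubation. Potency as pEC50, efficacy relative to fingolimod (SPAN).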
Target sequence in this assay (P21453 whole entry, looked up): as above
Target sequence in this assay (P32121 whole entry partner, looked up): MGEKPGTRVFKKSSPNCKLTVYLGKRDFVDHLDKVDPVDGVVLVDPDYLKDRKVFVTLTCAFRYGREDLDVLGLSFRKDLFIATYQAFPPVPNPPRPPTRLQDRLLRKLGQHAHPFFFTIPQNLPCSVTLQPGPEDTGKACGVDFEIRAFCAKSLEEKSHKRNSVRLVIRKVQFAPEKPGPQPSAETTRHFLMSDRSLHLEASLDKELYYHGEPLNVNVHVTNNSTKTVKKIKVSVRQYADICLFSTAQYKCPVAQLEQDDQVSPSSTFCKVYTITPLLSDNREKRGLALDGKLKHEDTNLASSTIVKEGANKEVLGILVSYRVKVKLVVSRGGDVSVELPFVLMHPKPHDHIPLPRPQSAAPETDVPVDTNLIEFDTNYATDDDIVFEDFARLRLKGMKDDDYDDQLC

Compound | hS1P1 cAMP pEC50 [1] | hS1P1 B-arrestin2 pEC50 [2] | Emax [1] [%] | Emax [2] [%]
Cc1ccsc1-c1nc(-c2ccc3c(c2)nnn3C(C)(C)CO)no1 [Compound 611, 2-methyl-2-(5-(5-(3-methylthiophen-2-yl)-1,2,4-oxadiazol-3-yl)-1H-benzo[d][1,2,3]triazol-1-yl)propan-1-ol] | >6.5 | >5 | < 75 | < 75
Cc1ccncc1-c1noc(-c2ccc3c(c2)NC(=O)CN3)n1 [Compound 613, 7-[3-(4-methylpyridin-3-yl)-1,2,4-oxadiazol-5-yl]-1,2,3,4-tetrahydroquinoxalin-2-one] | <6.5 | <5 | – | –
COc1ccccc1-c1noc(-c2ccc3c(c2)NC(=O)CN3)n1 [Compound 614, 7-[3-(2-methoxyphenyl)-1,2,4-oxadiazol-5-yl]-1,2,3,4-tetrahydroquinoxalin-2-one] | <6.5 | <5 | – | –
CCC1(CC)CC(=O)c2cc(-c3nc(-c4cnccn4)no3)ccc2O1 [Compound 617, 2,2-diethyl-6-(3-(pyrazin-2-yl)-1,2,4-oxadiazol-5-yl)chroman-4-one] | <6.5 | <5 | – | –
CCC1(CC)CC(=O)c2cc(-c3nc(-c4cncnc4)no3)ccc2O1 [Compound 620, 2,2-diethyl-6-(3-(pyrimidin-5-yl)-1,2,4-oxadiazol-5-yl)chroman-4-one] | >6.5 | >5 | – | –
CCC1(CC)CC(=O)c2cc(-c3nc(-c4cccnn4)no3)ccc2O1 [Compound 621, 2,2-diethyl-6-(3-(pyridazin-3-yl)-1,2,4-oxadiazol-5-yl)chroman-4-one] | <6.5 | <5 | – | –
CCC1(CC)CC(=O)c2cc(-c3nc(-c4ccc5ncoc5c4)no3)ccc2O1 [Compound 622, 6-(3-(benzo[d]oxazol-6-yl)-1,2,4-oxadiazol-5-yl)-2,2-diethylchroman-4-one] | >6.5 | <5 | – | –
CCc1ccccc1-c1nc(-c2ccc3c(c2)nnn3C(C)(C)CO)no1 [Compound 624, 2-(5-(5-(2-ethylphenyl)-1,2,4-oxadiazol-3-yl)-1H-benzo[d][1,2,3]triazol-1-yl)-2-methylpropan-1-ol] | <6.5 | <5 | < 75 | > 75
CC(C)(CO)n1nnc2cc(-c3noc(-c4ccncc4C(F)(F)F)n3)ccc21 [Compound 626, 2-methyl-2-(5-(5-(3-(trifluoromethyl)pyridin-4-yl)-1,2,4-oxadiazol-3-yl)-1H-benzo[d][1,2,3]triazol-1-yl)propan-1-ol] | <6.5 | <5 | – | –
CC(C)Nc1ccc(-c2ncc(-c3ccc4[nH]c(=O)[nH]c4c3)cn2)cc1C#N [Compound 628, 2-(isopropylamino)-5-(5-(2-oxo-2,3-dihydro-1H-benzo[d]imidazol-5-yl)pyrimidin-2-yl)benzonitrile] | >6.5 | >5 | – | –
O=C1CNc2ccc(-c3nc(-c4cccnc4)no3)cc2N1 [Compound 629, 7-[3-(pyridin-3-yl)-1,2,4-oxadiazol-5-yl]-1,2,3,4-tetrahydroquinoxalin-2-one] | <6.5 | <5 | – | –
CCCC1CC(=O)c2ccc(-c3nc(-c4cccnc4)no3)cc2O1 (stereo not drawn) [Compound 630, 2-propyl-7-[3-(pyridin-3-yl)-1,2,4-oxadiazol-5-yl]-3,4-dihydro-2H-1-benzopyran-4-one] | <6.5 | <5 | – | –
CCCCC1CC(=O)c2ccc(-c3nc(-c4cccnc4)no3)cc2O1 (stereo not drawn) [Compound 633, 2-butyl-7-[3-(pyridin-3-yl)-1,2,4-oxadiazol-5-yl]-3,4-dihydro-2H-1-benzopyran-4-one] | <6.5 | <5 | – | –
Cn1cnc2ccc(-c3nnc(-c4ccc(NC(C)(C)CO)c(C#N)c4)o3)cc21 [Compound 634, 2-[(1-hydroxy-2-methylpropan-2-yl)amino]-5-[5-(1-methyl-1H-1,3-benzodiazol-6-yl)-1,3,4-oxadiazol-2-yl]benzonitrile] | <6.5 | <5 | – | –
Cn1cnc2ccc(-c3nnc(-c4ccc(NCC(F)(F)CO)c(C#N)c4)o3)cc21 [Compound 635, 2-[(2,2-difluoro-3-hydroxypropyl)amino]-5-[5-(1-methyl-1H-1,3-benzodiazol-6-yl)-1,3,4-oxadiazol-2-yl]benzonitrile] | >6.5 | >5 | – | –
CC(C)Nc1ccc(-c2nnc(-c3ccc4c(c3)C(=O)NCC4)o2)cc1C#N [Compound 638, 5-[5-(1-oxo-1,2,3,4-tetrahydroisoquinolin-7-yl)-1,3,4-oxadiazol-2-yl]-2-[(propan-2-yl)amino]benzonitrile] | >6.5 | <5 | – | –
CCC1(CC)CC(=O)c2cc(-c3nc(-c4ccncn4)no3)ccc2O1 [Compound 639, 2,2-diethyl-6-(3-(pyrimidin-4-yl)-1,2,4-oxadiazol-5-yl)chroman-4-one] | <6.5 | <5 | – | –

Results, then the compound that gave them:

hS1P1 cAMP pEC50 [1] | hS1P1 B-arrestin2 pEC50 [2] | Emax [1] [%] | Emax [2] [%] | Compound
>6.5 | <5 | – | – | Cc1ccccc1-c1nc(-c2ccc3c(c2)nnn3C(C)(C)CO)no1 [Compound 609, 2-methyl-2-(5-(5-(o-tolyl)-1,2,4-oxadiazol-3-yl)-1H-benzo[d][1,2,3]triazol-1-yl)propan-1-ol]
<6.5 | <5 | – | – | COc1ccc(-c2nc(-c3ccc4c(c3)nnn4C(C)(C)CO)no2)c(C)c1 [Compound 610, 2-(5-(5-(4-methoxy-2-methylphenyl)-1,2,4-oxadiazol-3-yl)-1H-benzo[d][1,2,3]triazol-1-yl)-2-methylpropan-1-ol]
>6.5 | >5 | < 75 | > 75 | COc1cccnc1-c1nc(-c2ccc3c(c2)nnn3C(C)C)no1 [Compound 612, 3-(1-isopropyl-1H-benzo[d][1,2,3]triazol-5-yl)-5-(3-methoxypyridin-2-yl)-1,2,4-oxadiazole]
>6.5 | >5 | – | – | COc1ncccc1-c1noc(-c2ccc3c(c2)nnn3C(C)C)n1 [Compound 619, 5-(1-isopropyl-1H-benzo[d][1,2,3]triazol-5-yl)-3-(2-methoxypyridin-3-yl)-1,2,4-oxadiazole]
<6.5 | <5 | > 75 | > 75 | COc1ccccc1-c1nc(-c2ccc3c(c2)nnn3C(C)(C)CO)no1 [Compound 623, 2-(5-(5-(2-methoxyphenyl)-1,2,4-oxadiazol-3-yl)-1H-benzo[d][1,2,3]triazol-1-yl)-2-methylpropan-1-ol]
<6.5 | <5 | < 75 | < 75 | Cc1ccncc1-c1nc(-c2ccc3c(c2)nnn3C(C)(C)CO)no1 [Compound 625, 2-methyl-2-(5-(5-(4-methylpyridin-3-yl)-1,2,4-oxadiazol-3-yl)-1H-benzo[d][1,2,3]triazol-1-yl)propan-1-ol]
<6.5 | <5 | > 75 | > 75 | COc1cccnc1-c1noc(-c2ccc3c(c2)nnn3C(C)C)n1 [Compound 627, 5-(1-isopropyl-1H-benzo[d][1,2,3]triazol-5-yl)-3-(3-methoxypyridin-2-yl)-1,2,4-oxadiazole]
